In patent US9273058B2 (BRISTOL-MYERS SQUIBB COMPANY, priority 2013, dated 2016) one finds IC50 data, which are given here for 26 compounds.

The structures appear in SMILES notation.

The target of test [1] is CK1ε (Homo sapiens, UniProt P49674). Description: CK1ε kinase assay (Caliper LabChip electrophoretic separation of fluoresceinated peptide substrate and product). It counts as biochemical. Conditions: 200 pM CK1ε, 50 μM ATP, 1.5 μM peptide, 22 hours at room temperature; read-out: CK1ε IC50 range. The method in brief: (§1)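 IC50 values were obtained by non-linear regression from eleven-concentration titrations. The kinase reactions were incubated for 22 hours at room temperature before termination with 35 mM EDTA.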

The target in test [2] is CK1δ (Homo sapiens, UniProt P48730). Description: CK1δ kinase assay (Caliper LabChip electrophoretic separation of fluoresceinated peptide substrate and product). It counts as biochemical. Conditions: 200 pM CK1δ, 50 μM ATP, 1.5 μM peptide, 22 hours at room temperature; read-out: CK1δ IC50 range. In short, it runs like this:
as §1

Sequence of CK1ε (P49674 whole entry): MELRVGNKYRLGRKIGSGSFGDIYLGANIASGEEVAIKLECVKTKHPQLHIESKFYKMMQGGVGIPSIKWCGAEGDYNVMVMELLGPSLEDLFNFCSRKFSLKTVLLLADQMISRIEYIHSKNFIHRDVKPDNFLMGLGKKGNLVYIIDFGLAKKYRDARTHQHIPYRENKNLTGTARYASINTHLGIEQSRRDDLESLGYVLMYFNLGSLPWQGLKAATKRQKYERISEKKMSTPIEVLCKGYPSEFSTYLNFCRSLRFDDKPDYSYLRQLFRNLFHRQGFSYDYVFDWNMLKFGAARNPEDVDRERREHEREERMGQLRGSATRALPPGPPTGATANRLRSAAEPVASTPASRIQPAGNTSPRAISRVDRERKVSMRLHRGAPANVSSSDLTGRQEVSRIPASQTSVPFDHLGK
Sequence of CK1δ (P48730 whole entry): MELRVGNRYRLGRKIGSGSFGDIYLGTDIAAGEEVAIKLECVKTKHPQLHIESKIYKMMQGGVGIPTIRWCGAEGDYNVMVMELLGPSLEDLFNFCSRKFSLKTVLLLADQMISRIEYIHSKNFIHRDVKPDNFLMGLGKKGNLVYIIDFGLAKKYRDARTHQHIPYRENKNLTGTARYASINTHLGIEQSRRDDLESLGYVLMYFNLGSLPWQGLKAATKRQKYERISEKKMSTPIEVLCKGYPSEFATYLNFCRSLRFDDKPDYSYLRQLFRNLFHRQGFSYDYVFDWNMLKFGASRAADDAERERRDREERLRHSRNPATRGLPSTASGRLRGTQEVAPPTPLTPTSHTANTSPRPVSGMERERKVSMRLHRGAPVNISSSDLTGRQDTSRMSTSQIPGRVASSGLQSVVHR

On to `CO[C@H]1C[C@H](NC(=O)N2CCn3nc(-c4cccc(Cl)c4)c(C(N)=O)c3C2)C1` [Compound 178, 2-(3-Chlorophenyl)-N^5-((1r,3r)-3-methoxycyclobutyl)-6,7-dihydropyrazolo [1,5-a]pyrazine-3,5(4H)-dicarboxamide], for which the IC50 in test [1] and in test [2] was 0.01 to 10 nM throughout.

Turning to `NC(=O)c1c(-c2cccc(Cl)c2)nn2c1CN(C(=O)NCC1CC(F)(F)C1)CC2` [Compound 179, 2-(3-Chlorophenyl)-N^5-((3,3-difluorocyclobutyl)methyl)-6,7-dihydropyrazolo[1,5-a]pyrazine-3,5(4H)-dicarboxamide], the IC50 in test [1] and in test [2] was 0.01 to 10 nM throughout.

Regarding `NC(=O)c1c(-c2cccc(Cl)c2)nn2c1CN(C(=O)NCC1CCC(F)(F)CC1)CC2` [Compound 180, 2-(3-Chlorophenyl)-N^5-((4,4-difluorocyclohexyl)methyl)-6,7-dihydropyrazolo[1,5-a]pyrazine-3,5(4H)-dicarboxamide], the IC50 in test [1] and in test [2] was 0.01 to 10 nM throughout.

`NC(=O)c1c(-c2cccc(Cl)c2)nn2c1CN(C(=O)NC1CC3(CC3)C1)CC2` [Compound 181, 2-(3-Chlorophenyl)-N^5-(spiro[2.3]hexan-5-yl)-6,7-dihydropyrazolo[1,5-a]pyrazine-3,5(4H)-dicarboxamide]: the IC50 in test [1] and in test [2] was 0.01 to 10 nM in each case.

As to `NC(=O)c1c(-c2cccc(Cl)c2)nn2c1CN(C(=O)NC1CC3(C1)CC(F)(F)C3)CC2` [Compound 182, 2-(3-Chlorophenyl)-N^5-(6,6-difluorospiro[3.3]heptan-2-yl)-6,7-dihydropyrazolo[1,5-a] pyrazine-3,5(4H)-dicarboxamide], the IC50 in test [1] and in test [2] was 0.01 to 10 nM each time.

Regarding `NC(=O)c1c(-c2cccc(Cl)c2)nn2c1CN(C(=O)N[C@@H]1C[C@@H]3[C@H](C1)C3(F)F)CC2` [Compound 183, 2-(3-Chlorophenyl)-N^5-((1R,3s,5S)-6,6-difluorobicyclo[3.1.0]hexan-3-yl)-6,7-dihydropyrazolo[1,5-a]pyrazine-3,5(4H)-dicarboxamide], the IC50 in test [1] and in test [2] was 0.01 to 10 nM in each case.

For the compound `NC(=O)c1c(-c2cccc(Cl)c2)nn2c1CN(C(=O)N[C@H]1C[C@@H]3[C@H](C1)C3(F)F)CC2` [Compound 184, 2-(3-Chlorophenyl)-N^5-((1R,3r,5S)-6,6-difluorobicyclo[3.1.0]hexan-3-yl)-6,7-dihydropyrazolo[1,5-a]pyrazine-3,5(4H)-dicarboxamide], the IC50 in test [1] and in test [2] was 0.01 to 10 nM in each case.

Take `CC(C)(NC(=O)N1CCn2nc(-c3ccc(F)c(Cl)c3)c(C(N)=O)c2C1)C(F)F` [Compound 185, 2-(3-Chloro-4-fluorophenyl)-N^5-(1,1-difluoro-2-methylpropan-2-yl)-6,7-dihydropyrazolo[1,5-a]pyrazine-3,5(4H)-dicarboxamide]: the IC50 in test [1] and in test [2] was 0.01 to 10 nM throughout.

As for `CC(C)(CC#N)NC(=O)N1CCn2nc(-c3ccc(F)c(Cl)c3)c(C(N)=O)c2C1` [Compound 186, 2-(3-Chloro-4-fluorophenyl)-N^5-(1-cyano-2-methylpropan-2-yl)-6,7-dihydropyrazolo [1,5-a]pyrazine-3,5(4H)-dicarboxamide], the IC50 in test [1] and in test [2] was 0.01 to 10 nM throughout.

As to `CC(C)(NC(=O)N1CCn2nc(-c3ccc(F)c(Cl)c3)c(C(N)=O)c2C1)c1ccc(C#N)cc1` [Compound 187, 2-(3-Chloro-4-fluorophenyl)-N^5-(2-(4-cyanophenyl)propan-2-yl)-6,7-dihydropyrazolo [1,5-a]pyrazine-3,5(4H)-dicarboxamide], the IC50 in test [1] and in test [2] was 0.01 to 10 nM throughout.

With `CC(F)(F)C(C)(C)NC(=O)N1CCn2nc(-c3ccc(F)c(Cl)c3)c(C(N)=O)c2C1` [Compound 188, 2-(3-Chloro-4-fluorophenyl)-N^5-(3,3-difluoro-2-methylbutan-2-yl)-6,7-dihydropyrazolo[1,5-a] pyrazine-3,5(4H)-dicarboxamide], the IC50 in test [1] and in test [2] was 0.01 to 10 nM throughout.

For the compound `NC(=O)c1c(-c2ccc(F)c(Cl)c2)nn2c1CN(C(=O)N[C@H]1C[C@H](F)C1)CC2` [Compound 189, 2-(3-Chloro-4-fluorophenyl)-N^5-((1r,3r)-3-fluorocyclobutyl)-6,7-dihydropyrazolo[1,5-a] pyrazine-3,5(4H)-dicarboxamide], the IC50 in test [1] and in test [2] was 0.01 to 10 nM each time.

Take `NC(=O)c1c(-c2ccc(F)c(Cl)c2)nn2c1CN(C(=O)N[C@H]1C[C@@H](F)C1)CC2` [Compound 190, 2-(3-Chloro-4-fluorophenyl)-N^5-((1s,3s)-3-fluorocyclobutyl)-6,7-dihydropyrazolo[1,5-a] pyrazine-3,5(4H)-dicarboxamide]: the 50% inhibitory concentration (IC50) in test [1] and in test [2] was 0.01 to 10 nM throughout.

For `NC(=O)c1c(-c2ccc(F)c(Cl)c2)nn2c1CN(C(=O)NCC1CC(F)(F)C1)CC2` [Compound 193, 2-(3-Chloro-4-fluorophenyl)-N^5-((3,3-difluorocyclobutyl)methyl)-6,7-dihydropyrazolo[1,5-a] pyrazine-3,5(4H)-dicarboxamide], the IC50 in test [1] and in test [2] was 0.01 to 10 nM each time.

Consider `NC(=O)c1c(-c2ccc(F)c(Cl)c2)nn2c1CN(C(=O)NC1CC3(CC3)C1)CC2` [Compound 195, 2-(3-Chloro-4-fluorophenyl)-N^5-(spiro [2.3]hexan-5-yl)-6,7-dihydropyrazolo[1,5-a] pyrazine-3,5(4H)-dicarboxamide], for which the IC50 in test [1] and in test [2] was 0.01 to 10 nM each time.

As for `NC(=O)c1c(-c2ccc(F)c(Cl)c2)nn2c1CN(C(=O)NC1CC3(C1)CC(F)(F)C3)CC2` [Compound 196, 2-(3-Chloro-4-fluorophenyl)-N^5-(6,6-difluorospiro[3.3]heptan-2-yl)-6,7-dihydropyrazolo[1,5-a] pyrazine-3,5(4H)-dicarboxamide], the IC50 in test [1] and in test [2] was 0.01 to 10 nM throughout.

As for `CC(C)(NC(=O)N1CCn2nc(-c3ccc(Cl)c(Cl)c3)c(C(N)=O)c2C1)C(F)F` [Compound 199, 2-(3,4-Dichlorophenyl)-N^5-(1,1-difluoro-2-methylpropan-2-yl)-6,7-dihydropyrazolo[1,5-a]pyrazine-3,5(4H)-dicarboxamide], the IC50 in test [1] and in test [2] was 0.01 to 10 nM in each case.

For `CC(C)(NC(=O)N1CCn2nc(-c3ccc(Cl)c(Cl)c3)c(C(N)=O)c2C1)c1ccc(C#N)cc1` [Compound 200, N^5-(2-(4-Cyanophenyl)propan-2-yl)-2-(3,4-dichlorophenyl)-6,7-dihydropyrazolo[1,5-a] pyrazine-3,5(4H)-dicarboxamide], the IC50 in test [1] and in test [2] was 0.01 to 10 nM throughout.

For the compound `NC(=O)c1c(-c2ccc(Cl)c(Cl)c2)nn2c1CN(C(=O)N[C@H]1C[C@H](F)C1)CC2` [Compound 202, 2-(3,4-Dichlorophenyl)-N^5-((1r,3r)-3-fluorocyclobutyl)-6,7-dihydropyrazolo[1,5-a] pyrazine-3,5(4H)-dicarboxamide], the IC50 in test [1] and in test [2] was 0.01 to 10 nM throughout.

`NC(=O)c1c(-c2ccc(Cl)c(Cl)c2)nn2c1CN(C(=O)N[C@H]1C[C@@H](F)C1)CC2` [Compound 203, 2-(3,4-Dichlorophenyl)-N^5-((1s,3s)-3-fluorocyclobutyl)-6,7-dihydropyrazolo[1,5-a] pyrazine-3,5(4H)-dicarboxamide]: the IC50 in test [1] and in test [2] was 0.01 to 10 nM throughout.

As for `CO[C@H]1C[C@H](NC(=O)N2CCn3nc(-c4ccc(Cl)c(Cl)c4)c(C(N)=O)c3C2)C1` [Compound 204, 2-(3,4-Dichlorophenyl)-N^5-((1r,3r)-3-methoxycyclobutyl)-6,7-dihydropyrazolo[1,5-a] pyrazine-3,5(4H)-dicarboxamide], the half-inhibitory concentration (IC50) in test [1] and in test [2] was 0.01 to 10 nM throughout.

As for `NC(=O)c1c(-c2ccc(Cl)c(Cl)c2)nn2c1CN(C(=O)NCC1CC(F)(F)C1)CC2` [Compound 205, 2-(3,4-Dichlorophenyl)-N^5-((3,3-difluorocyclobutyl)methyl)-6,7-dihydropyrazolo[1,5-a] pyrazine-3,5(4H)-dicarboxamide], the IC50 in test [1] and in test [2] was 0.01 to 10 nM each time.

On to `NC(=O)c1c(-c2ccc(Cl)c(Cl)c2)nn2c1CN(C(=O)NCC1CCC(F)(F)CC1)CC2` [Compound 206, 2-(3,4-Dichlorophenyl)-N^5-((4,4-difluorocyclohexyl)methyl)-6,7-dihydropyrazolo[1,5-a] pyrazine-3,5(4H)-dicarboxamide], for which the IC50 in test [1] and in test [2] was 0.01 to 10 nM throughout.

For the compound `NC(=O)c1c(-c2ccc(Cl)c(Cl)c2)nn2c1CN(C(=O)NC1CC3(C1)CC(F)(F)C3)CC2` [Compound 208, 2-(3,4-Dichlorophenyl)-N^5-(6,6-difluorospiro [3.3]heptan-2-yl)-6,7-dihydropyrazolo[1,5-a] pyrazine-3,5(4H)-dicarboxamide], the IC50 in test [1] and in test [2] was 0.01 to 10 nM throughout.

`CC(CF)(CF)NC(=O)N1CCn2nc(-c3ccc(F)c(Cl)c3)c(C(N)=O)c2C1` [Compound 209, 2-(3-Chloro-4-fluorophenyl)-N^5-(1,3-difluoro-2-methylpropan-2-yl)-6,7-dihydropyrazolo[1,5-a]pyrazine-3,5(4H)-dicarboxamide]: the IC50 in test [1] and in test [2] was 0.01 to 10 nM each time.

Turning to `CC(C)(COC(F)(F)F)NC(=O)N1CCn2nc(-c3ccc(F)c(Cl)c3)c(C(N)=O)c2C1` [Compound 212, 2-(3-Chloro-4-fluorophenyl)-N^5-(2-methyl-1-(trifluoromethoxy)propan-2-yl)-6,7-dihydropyrazolo[1,5-a]pyrazine-3,5(4H)-dicarboxamide], the IC50 in test [1] and in test [2] was 0.01 to 10 nM in each case.
